Key:
[1] = Serum level of EH-36 in rats by HPLC; assay type: in vivo, rat; settings: 16 mg/day in sesame oil s.c. for 3 days, serum on fourth day, preliminary
Method: Extract aliquots (30 μl) were analyzed by reverse phase HPLC in a 150×4.6 mm, 3μ ODS Hypersil® column (Thermohypersil-Keystone, Bellfonte, Pa.) connected to an L-4200 UV-Vis detector (272 nm). Elution was at a flow rate of 1.5 ml/min with water and acetonitrile gradient: the initial solvent mixture was 30% water:70% acetonitrile:. A convex gradient over 20 min then followed to 100% acetonitrile.
The pharmacokinetic parameters of EH-36 were determined by the following procedure. Rats (3 per group per time point) were anesthetized and their blood collected from the portal vein. The serum was separated and extracted with chloroform. The extract was dried and redissolved in a small volume of chloroform and separated by HPLC and identified by UV absorption. The animals were treated with 16 mg/day (in sesame oil, s.c.) for 3 days. On the fourth day the animals were sacrificed and serum was isolated, extracted and separated by HPLC. There was a distinct peak of EH-36 corresponding to 1.01 mg/ml EH-36. To verify that this peak corresponds to EH-36 a known quantity of this compound was added to a serum sample taken from the EH-36-treated rats. Following extraction and HPLC analysis the only peak that was intensified was that corresponding to EH-36. […]

[2] = system: streptozotocin-diabetic C57/black mice; assay: Anti-hyperglycemic activity in streptozotocin-diabetic mice; assay type: in vivo, mouse
Method: FIG. 12: Anti-hyperglycemic activity of EH-36 in streptozotocin-diabetic mice. Mice were treated with EH-36 or the vehicle alone (sesame oil, bold lines), and their blood glucose levels determined at the indicated time intervals. Male C57/black mice were made hyperglycemic by 5 repeated daily injections of streptozotocin (i.p. 50 mg/Kg body weight). EH-36 was dissolved in sesame oil (4 mg/ml) and injected s.c (400 μg) twice a day.
FIG. 13: Anti-hyperglycemic activity of EH-36 in streptozotocin-diabetic mice. Mice were treated with EH-36 (as described in the legend to FIG. 12) or the vehicle alone (sesame oil, bold lines), and their blood glucose levels were determined at the indicated time intervals. C57/black mice were made diabetic as described in the legend to FIG. 12.
EH-36 was tested for its potential anti-hyperglycemic activity in an animal model of diabetes. Male C57/black mice were made diabetic by daily i.p. injections of streptozotocin (50 mg/Kg) for 5 days. After 10 days the fasting blood glucose of these mice was above 300 mg/dL as compared to 80-130 mg/dL of control mice. Unlike a single and high dose injection of streptozotocin, which produces an animal model for Type 1 diabetes, the repeated low-dose injections produce a model that more closely resembles Type 2 diabetes. (Fraser, R. B., Rowden, G., Colp, P, And Wright, J. R. Jr.: Immunophenotyping of insulitis in control and essential fatty aid deficient mice treated with multiple low-dose streptozotocin. Diabetologia, 40:1263-1268, 1997).
EH-36 was dissolved in sesame oil (4 mg/ml) and injected into Streptozotocin-diabetic mice (s.c. 400 μg, twice a day at 08 and 18 hrs). Blood was withdrawn from the tip of the tails and glucose levels were measured with a glucometer.

[3] = system: glucose uptake in cultured cells; assay: In vitro glucose uptake / hexose transport in cultured cells with xylose derivatives (Table 2); assay type: cell-based; settings: for EC50 / ECmax: EC = Effective concentration
Method: Table 2 summarizes in vitro results obtained with some of these newly synthesized xylose derivatives.
(§1) Uptake assay of the tritiated glucose analogue, 2-deoxy-D-glucose, is routinely performed as described in [Sasson, S. and Cerasi, E. (1986) J. Biol. Chem. 261, 16827-16833].
All new compounds are screened and tested first in various insulin-sensitive cell cultures used routinely in the laboratory (skeletal muscle and adipose cell lines). In addition these drugs were tested in non-insulin-sensitive cells such as primary cultures of bovine and porcine vascular endothelial and smooth muscle cells. Active compounds were tested ex-vivo on isolated rat soleus muscles. All cell cultures and tissues were maintained under hyperglycemic condition prior to the addition of the test compounds. Dose-response and time-course experiments determine which of the derivatives are subsequently tested in animal models. For each potent compound the total cell content and plasma membrane abundance of GLUT-1 and GLUT-4 was determined, as described above. The same biotinylation technique was employed to determine the total and plasma membrane content of both transporters in isolated mouse or rat soleus muscles treated with potent compounds.

Solubility of EH-36 = assay type: physicochemical; settings: e.g., DMSO, ethanol and oil
non-diabetic mice = assay: Blood glucose level of non-diabetic mice; settings: mouse, in vivo
[4] = system: streptozotocin-diabetic mice; assay: Glucose tolerance test (GTT) of diabetic mice; assay type: in vivo, mouse
Method: FIG. 14: Glucose tolerance test (GTT) of diabetic mice treated with sesame oil or EH-36 for 9 days, as described in the legend to FIG. 12. On the morning of the 10th day and following an overnight fast the mice received glucose (2 gr/Kg body weight) by i.p. injection, Blood glucose was determined for 3 hr at 30 min intervals. The glucose data were plotted for each animal and the area under the curve (AUC) was calculated.
In another set of experiments similar diabetic mice were treated with the oil or EH-36 (1.5 mg, s.c. twice a day) for 9 days. On the morning of the 10th day and following an overnight fast the mice were subjected to a glucose tolerance test (GTT). The mice received D-glucose by i.p. injections (2 gr/kg body weight). Blood glucose as monitored for 3 hr at 30 min intervals.

L6 myotubes = assay: dGlc uptake assay in L6 myotubes; assay type: cell-based, rat; settings: for effect of PI3-kinase inhibitor LY-249002 on the substance's stimulation of hexose transport: 60 μM inhibitor, 23.0 mM glucose (FIG. 11A), EH-40 data not shown
Method: (§2) FIG. 10: Western blot depicting effect of 3-O-propyl-D-xylose (EH-114), and 1,3-O-dimethylxylopyranoside (EH-101) on the total cell content and plasma membrane abundance of GLUT-4 in the absence or presence of insulin. L6 myotubes were maintained for 48 hr at 23 mM Glucose. The cells were than washed and received fresh medium containing the indicated additions and incubated for additional […]. Insulin was added during the last 30 min of incubation before the dGlc uptake assay.
FIG. 11A: Effect of LY-249002, a PI3-kinase inhibitor, on insulin, D-xylose, EH-101 and EH-114-mediated glucose uptake. L6 myotubes were treated as described in the legend to FIG. 10. The glucose concentration in the culture medium was 23.0 mM. The concentration of LY-294002 was 60 μM. At the end of incubation the cells were taken for the standard dGlc uptake assay. Mean±SEM, n=3.
(§3) GLUT-1 and GLUT-4 mediate glucose entry into L6 myotubes. It is established that GLUT-4 is translocated effectively and rapidly to the plasma membrane upon insulin treatment. The inventors looked at the effect of 3-O-propyl-D-xylose EH-114) and 1,3-O-dimethylxylopyranoside (EH-101) on the total cell content and plasma membrane abundance of these transporters in the absence or presence of insulin. L6 myotubes were maintained at 5.0 or 23.0 mM glucose for 48 hr and EH-114 and EH-101 were present during the last 24 hr. The cells were then taken for the standard [^3H]-2-deoxy-D-glucose uptake assay and for the biotinylation procedure for determining the amount of GLUT-1 and GLUT-4 in the plasma membrane. High glucose levels decreased the hexose transport rate by ˜50%. Insulin augmented the transport nearly 2-fold in both cases. EH-114 and EH-101 increased the transport rate 2-3-fold in the absence of insulin. Together with insulin the uptake rate was increased nearly 3-fold.
The inventors also tested the hypothesis that the active D-xylose derivatives augment the hexose transport capacity in L6 myotubes by translocating GLUT-4 to the plasma membrane not via the common insulin-regulated pathway. For this experiment, a selective inhibitor of the enzyme PI3-kinase, LY-249002, which is a key enzyme in the cellular transduction mechanism of insulin, was utilized. […] These findings also agree well with the longer onset of action of these derivatives as compared to the rapid action of insulin. Similar results were obtained when LY-249002 was present together with the derivatives throughout the entire incubation period.
as §1

GLUT-4 = assay: Cell surface biotinylation and western blot of GLUT-4 in L6 myotubes; assay type: cell-based, rat; settings: for translocation of GLUT-4 to the plasma membrane: L6 myotubes, xylose derivatives in the absence of insulin, insulin 500 nM (FIG. 10)
Method: as §2, §3
Surface biotinylation of the cells was performed as previously described [Sasson et al (1997), Diabetologia, 40, 30-398].

PKB = PKB phosphorylation immunoblot in L6 myotubes; assay type: cell-based, rat; settings: 23.0 mM glucose; 100 nM insulin, 20 mM xylose, 5 mM EH-114 or 250 μM EH-40, up to 24 hrs (FIG. 11B)
Method: FIG. 11B: Effects of insulin D-xylose and xylose derivatives on PKB phosphorylation. L6 myotubes were maintained at 5.5 mM or 23.0 mM glucose. The latter were treated with 100 nM insulin, 20 mM xylose, 5 mM EH-114 or 250 μM EH-40 up to 24 hrs. At the indicated times treated myotubes were collected, homogenized and lysed and the soluble protein fraction was isolated. The control myotubes were collected at the end of the 24 hr incubation period. Equal amounts of proteins of the various treated myotubes were separated on SDS-PAGE and immunoblotted with a specific antibody against phospho-Axt1/PKBα (Ser473). In order to test whether xylose derivative activate insulin transduction elements downstream of PI3K, the inventors tested the state of PKB phosphorylation, as shown in FIG. 11B.

GLUT-1 = assay: Cell surface biotinylation and western blot of GLUT-1 in L6 myotubes; assay type: cell-based, rat; settings: data not shown
Method: as §3
FIG. 10 presents the western blots showing the results of such a representative experiment. Under hyperglycemic conditions the total cell content of GLUT-4 was reduced as well as its plasma membrane abundance [lanes 1 & 2 for Total cell content and PM (plasma membrane) fractions]. […]

With CCSC(SCC)[C@@H]1OC(c2ccccc2)O[C@@H]2COC(c3ccccc3)O[C@@H]21 (stereo partly drawn) [EH-36, 2,4:3,5 di-O-benzylidene-D-xylose-diethyl-dithioacetal] the serum concentration [1] was 1010 µg/mL, the blood glucose level ([2]; 400 μg s.c. in sesame oil twice a day (FIG. 13)) was “reduced their blood glucose level to the normoglycemic range” and the “duration of effect after treatment” value ([2]; after the last injection) was “at least 3 weeks”. For the same molecule, the “blood glucose levels after treatment stopped” value ([2]; left untreated for four additional weeks after 9-day injection) was 250 to 350 mg/dL, the “appearance of animals after treatment stopped” value ([2]; untreated for four additional weeks) was “looked normal and healthy” and the “Fold Increase of Glucose Uptake” value [3] was 2.0 fold. The onset of action [3] was 24 to 48 h, the “time to maximal stimulatory effects” value [3] was at most 48 h and the EC50 [3] was 2 µM. The ECmax [3] was 10 µM, the “potency relative to D-xylose” value ([3]; more potent than xylose) was 2000 fold and the solubility (Solubility of EH-36) was “very limited solubility in most common organic solvents”. The “blood glucose level of non-diabetic mice” value (non-diabetic mice) was “Neither EH-36 nor the vehicle changed significantly”, the “average AUC of GTT” value ([4]; 1.5 mg s.c. twice a day for 9 days, glucose 2 gr/kg i.p. on 10th day, ±SEM) was 6.42±1.62 mg glucose/ml/hr and the “improvement of glucose clearance” value ([4]; following a 9-day treatment) was about 50%.
With CCCO[C@@H]([C@H](O)CO)[C@@H](O)C=O [EH-114, 3-O-propyl-D-xylose] the “effect of PI3-kinase inhibitor LY-249002 on the substance's stimulation of hexose transport” value (L6 myotubes) was “failed to affect”, the “increase of uptake rate together with insulin” value (L6 myotubes; L6 myotubes, compound during last 24 hr plus insulin) was about 3 fold and the “total cell content of GLUT-4” value (GLUT-4; L6 cells exposed to 23.0 mM glucose (FIG. 10)) was “increased the total content of the transporter”. The “translocation of GLUT-4 to the plasma membrane” value (GLUT-4) was “induced significant translocation of GLUT-4 to the plasma membrane”, the “Fold Increase of Glucose Uptake” value [3] was 2.6 fold and the EC50 [3] was 3000 µM. The ECmax [3] was 4500 µM, the “duration of activity following removal from the culture media” value ([3]; after being washed from cell cultures) was 24 h and the PKB phosphorylation (PKB) was “failed to induce significant phosphorylation”.
For “Insulin: insulin, hormone used as positive control for glucose transport stimulation [reference compound]”, the “effect of PI3-kinase inhibitor LY-249002 on the substance's stimulation of hexose transport” value (L6 myotubes) was “eliminated the stimulatory effect”, the “augmentation of transport by insulin” value (L6 myotubes; at 5.0 and 23.0 mM glucose) was about 2 fold and the “translocation of GLUT-4 to the plasma membrane” value (GLUT-4) was “translocation of GLUT-4 to the plasma membrane”. For the same molecule, the “effect on GLUT-1 (blots with anti GLUT-1 antibody)” value (GLUT-1) was “no effect” and the PKB phosphorylation (PKB) was “prominent, but transient phosphorylation”.

— patent US7812142B2, “Pentose derivatives as anti-hyperglycemic drugs” (Yissum Research Development Company of the Hebrew …, priority 2002, dated 2010)
